Data published in US20110184029A1, “PYRIDONE DERIVATIVES AS NON-NUCLEOSIDE REVERSE TRANSCRIPTASE INHIBITORS” (KOREA RESEARCH INSTITUTE OF CHEMICAL TECHNOLOGY, priority 2008, published 2011).

Columns and labels:
HIV-IIIb = test: Antiviral assay in MT-2 / MT-4 cells infected with HIV-IIIb (CellTiter-Glo readout); assay type: cell-based; settings: MT4, 120 h, 5 days, MT-2 or MT-4 cells not given
Description: For the antiviral assay utilizing MT-2 cells, 50 μl of 2× test concentration of 5-fold serially diluted compound in culture medium with 10% FBS was added to each well of a 96-well plate (9 concentrations) in triplicate. MT-2 cells were infected with HIV-IIIb at a multiplicity of infection (m.o.i) of 0.01 for 3 hours. Fifty microliters of infected cell suspension in culture medium with 10% FBS (˜1.5×10^4 cells) was then added to each well containing 50 μl of diluted compound. The plates were then incubated at 37° C. for 5 days. For the antiviral assay utilizing MT-4 cells, 20 μl of 2× test concentration of 5-fold serially diluted compound in culture medium with 10% FBS was added to each well of a 384-well plate (7 concentrations) in triplicate. MT-4 cells were next mixed with HIV-IIIb at an m.o.i. of 0.1 and 20 μl of virus/cell mixture (˜2000 cells) was immediately added to each well containing 20 μl of diluted compound. The plates were then incubated at 37° C. for 5 days. After 5 days of incubation, 100 μl of CellTiter-Glo™ Reagent (catalog #G7571, Promega Biosciences, Inc., Madison, Wis.) was added to each well containing MT-2 cells and 40 μl to each well containing MT-4 cells. Cell lysis was carried out by incubation at room temperature for 10 min and chemiluminescence was read.

[1] = Cytotoxicity assessment in uninfected MT-2 / MT-4 cells; assay type: cell-based; settings: human, MT-2 or MT-4 cells not given
Description: For compound cytotoxicity assessment in MT-2 cells, the protocol was identical to that of the antiviral assay in MT-2 cells, except that uninfected cells and a 3-fold serial dilution of compounds were used. For cytotoxicity assessment in MT-4 cells, the protocol is identical to that of the antiviral assay in MT-4 cells, except that no virus was added. Cytotoxicity is expressed as CC50.

Row | SMILES | EC50 (HIV-IIIb) [nM] | melting point [°C] | CC50 at 5 days [1] [µM]
1 | Cc1[nH]c(=O)c(C(C)C)c(C(=O)c2cc(Cl)cc(C#N)c2)c1CC1CC1 [Example 3, 3-Chloro-5-(5-cyclopropylmethyl-3-isopropyl-6-methyl-2-oxo-1,2-dihydro-pyridine-4-carbonyl)-benzonitrile] | < 100 | 237 to 238 | –
2 | Cc1cc(C#N)cc(C(=O)c2c(CC3(CO)CC3)c(C)[nH]c(=O)c2C(C)C)c1 [Example 5, 3-[5-(1-Hydroxymethyl-cyclopropylmethyl)-3-isopropyl-6-methyl-2-oxo-1,2-dihydro-pyridine-4-carbonyl]-5-methyl-benzonitrile] | < 100 | – | –
3 | Cc1[nH]c(=O)c(C(C)C)c([S+]([O-])c2cc(C#N)cc(C#N)c2)c1CC1CC1 (stereo not shown) [Example 6, 5-(5-Cyclopropylmethyl-3-isopropyl-6-methyl-2-oxo-1,2-dihydro-pyridin-4-sulfinyl)-isophthalonitrile] | < 100 | – | > 100
4 | Cc1cc(C#N)cc(Sc2c(CC3CC3)c(C)[nH]c(=O)c2C(C)C)c1 [Example 7, 3-(5-(cyclopropylmethyl)-3-isopropyl-6-methyl-2-oxo-1,2-dihydropyridin-4-ylthio)-5-methylbenzonitrile] | < 100 | – | –
5 | Cc1cc(C#N)cc([S+]([O-])c2c(CC3CC3)c(C)[nH]c(=O)c2C(C)C)c1 (stereo not shown) [Example 8, 3-(5-(cyclopropylmethyl)-3-isopropyl-6-methyl-2-oxo-1,2-dihydropyridin-4-ylsulfinyl)-5-methylbenzonitrile] | < 100 | – | –
6 | Cc1cc(C#N)cc(S(=O)(=O)c2c(CC3CC3)c(C)[nH]c(=O)c2C(C)C)c1 [Example 9, 3-(5-Cyclopropylmethyl-3-isopropyl-6-methyl-2-oxo-1,2-dihydro-pyridine-4-sulfonyl)-5-methyl-benzonitrile] | < 100 | – | > 69
7 | Cc1[nH]c(=O)c(C(C)C)c(C(=O)c2cc(C#N)cc(C(N)=O)c2)c1CC1CC1 [Example 10, 3-Cyano-5-(5-cyclopropylmethyl-3-isopropyl-6-methyl-2-oxo-1,2-dihydro-pyridine-4-carbonyl)-benzamide] | < 100 | – | –
8 | Cc1cc(C#CCO)cc(C(=O)c2c(CC3CC3)c(C)[nH]c(=O)c2C(C)C)c1 [Example 11, 5-(cyclopropylmethyl)-4-(3-(3-hydroxyprop-1-ynyl)-5-methylbenzoyl)-3-isopropyl-6-methylpyridin-2 (1H)-one] | < 100 | – | –

Second part, led by results:

Row | EC50 (HIV-IIIb) [nM] | melting point [°C] | SMILES | CC50 at 5 days [1] [µM]
9 | < 100 | 222 to 224 | Cc1cc(C#N)cc(C(=O)c2c(CC3CC3)c(C)[nH]c(=O)c2C(C)C)c1 [Example 1, 3-(5-Cyclopropylmethyl-3-isopropyl-6-methyl-2-oxo-1,2-dihydro-pyridine-4-carbonyl)-5-methyl-benzonitrile] | –
10 | < 100 | 266 to 267 | Cc1[nH]c(=O)c(C(C)C)c(C(=O)c2cc(C#N)cc(C#N)c2)c1CC1CC1 [Example 2, 5-(5-Cyclopropylmethyl-3-isopropyl-6-methyl-2-oxo-1,2-dihydro-pyridine-4-carbonyl)-isophthalonitrile] | –
11 | < 100 | – | Cc1[nH]c(=O)c(C(C)C)c(C(=O)c2cc(C#N)cc(C#CCO)c2)c1CC1CC1 [Example 12, 3-(5-Cyclopropylmethyl-3-isopropyl-6-methyl-2-oxo-1,2-dihydro-pyridine-4-carbonyl)-5-(3-hydroxy-prop-1-ynyl)-benzonitrile] | –
12 | < 100 | – | Cc1cc(C#N)cc(C(=O)c2c(CC3CC3)c(CO)[nH]c(=O)c2C(C)C)c1 [Example 13, 3-(5-Cyclopropylmethyl-6-hydroxymethyl-3-isopropyl-2-oxo-1,2-dihydro-pyridine-4-carbonyl)-5-methyl-benzonitrile] | –
13 | < 100 | – | CC(C)c1c(C(=O)c2cc(C#N)cc(C#N)c2)c(CC2CC2)c(CO)[nH]c1=O [Example 14, 5-(5-Cyclopropylmethyl-6-hydroxymethyl-3-isopropyl-2-oxo-1,2-dihydro-pyridine-4-carbonyl)-isophthalonitrile] | –
14 | < 100 | – | Cc1cc(C#N)cc(C(=O)c2c(CC3CC3)c(CC#N)[nH]c(=O)c2C(C)C)c1 [Example 15, 3-(6-Cyanomethyl-5-cyclopropylmethyl-3-isopropyl-2-oxo-1,2-dihydro-pyridine-4-carbonyl)-5-methyl-benzonitrile] | –
